The text below walks through data of PubChem BioAssay (NCI).

Some test systems named below: UACC-257 melanoma; HS 578T breast; MALME-3M melanoma; RXF 393 renal; UO-31 renal; SF-295 CNS; SF-268 CNS; SK-MEL-2 melanoma; NCI-H23 lung; NCI-H522 lung.
Common to all, as to experiment: NCI-60 cell line screen, 48 h

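Where inhibition never reached the appropriate level, the endpoint shown equals the highest concentration tested. Otherwise, values were interpolated linearly from a five-concentration, 48-hour dose response in 96-well plates. Abbreviation: GI50, concentration required for 50% inhibition of growth. TGI is the concentration that stops growth completely.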 A value given as a limit tells only on which side of the number the result lay.

Take `CCN(CC)CCn1ccc(=O)c2cc3c(=O)ccn(CCN(CC)CC)c3c(C)c21`: the TGI was found to be 33.9 µM in the assay on UACC-257 melanoma; 17.5 µM in the assay on HS 578T breast; 29.6 µM in the assay on MALME-3M melanoma; 14.1 µM in the assay on RXF 393 renal; 17.1 µM in the assay with UO-31 renal; 17.2 µM in the assay on SF-295 CNS. For the same molecule, the TGI with SF-268 CNS was 17.2 µM; with SK-MEL-2 melanoma, 24.5 µM; in the assay with NCI-H23 lung it was 19.3 µM; in the assay with NCI-H522 lung, 20.7 µM.

In the case of `CCCCOc1ccc(NC(N)=Nc2ccc(Cl)cc2)cc1`, the TGI in the assay with UACC-257 melanoma amounted to 5.21 µM; in the assay with HS 578T breast, 21 µM; in the assay with MALME-3M melanoma, 8.34 µM; in the assay with RXF 393 renal, 25.5 µM; in the assay with UO-31 renal, 9.6 µM; in the assay on SF-295 CNS it was 6.34 µM. Further, the TGI with SF-268 CNS is 12.9 µM; in the assay with SK-MEL-2 melanoma it was 9.73 µM; in the assay with NCI-H23 lung, 17.3 µM; in the assay with NCI-H522 lung it was 16.5 µM.

In the case of `COc1c2c(c3c(c1CCC(=O)O)OC(C)(C)C=C3)OC(C)(C)C=C2`, the TGI in the assay with UACC-257 melanoma, in the assay on HS 578T breast, with MALME-3M melanoma, in the assay on RXF 393 renal, in the assay on UO-31 renal and in the assay on SF-295 CNS was above 100 µM each time. Besides, the TGI with SF-268 CNS, with SK-MEL-2 melanoma, with NCI-H23 lung and in the assay on NCI-H522 lung was above 100 µM in each case.

`COC(=O)/C=C/C=C(c1ccccc1)c1ccccc1`: the GI50 in the assay on UACC-257 melanoma was 8.82 µM; in the assay on HS 578T breast it was 8.65 µM; in the assay with MALME-3M melanoma, 4.23 µM; with RXF 393 renal, 6.24 µM; with UO-31 renal, 3.27 µM; with SF-295 CNS, 2.76 µM. In addition, the values for the GI50 in the assay on SF-268 CNS, with NCI-H23 lung and in the assay with NCI-H522 lung were 4.63 µM, 16.3 µM and 5.88 µM, respectively. Further, the TGI with UACC-257 melanoma is above 100 µM; in the assay on HS 578T breast, 46 µM; with MALME-3M melanoma, 30.4 µM; in the assay on RXF 393 renal, 30 µM; in the assay on UO-31 renal, 37.8 µM; in the assay with SF-295 CNS it was 8.12 µM. The TGI is above 100 µM in the assay with SF-268 CNS, above 100 µM in the assay with NCI-H23 lung and 78.1 µM with NCI-H522 lung.

Regarding `COc1cccc(/C=C/C(=O)c2cccc(Nc3nc(Nc4ccccc4)nc(Nc4ccccc4)n3)c2)c1`, the GI50 is above 56 µM with UACC-257 melanoma; 15.8 µM in the assay with HS 578T breast; above 48.7 µM with MALME-3M melanoma; 10.7 µM with RXF 393 renal; 7.36 µM in the assay with UO-31 renal; 1.96 µM in the assay on SF-295 CNS. The GI50 is 20.9 µM in the assay on SF-268 CNS, above 33.4 µM in the assay with SK-MEL-2 melanoma, 21.3 µM in the assay on NCI-H23 lung and 15.1 µM in the assay with NCI-H522 lung. Also, the TGI was above 100 µM with UACC-257 melanoma; 61.7 µM with HS 578T breast; above 100 µM in the assay on MALME-3M melanoma; 35.6 µM with RXF 393 renal; 57.5 µM in the assay with UO-31 renal; above 89.9 µM in the assay with SF-268 CNS. Further, the TGI in the assay on SK-MEL-2 melanoma, with NCI-H23 lung and in the assay with NCI-H522 lung was above 100 µM throughout.

For the molecule `CCNC(=O)Nc1ccccn1`, the TGI in the assay on UACC-257 melanoma, with HS 578T breast, in the assay with MALME-3M melanoma, in the assay on RXF 393 renal, in the assay with UO-31 renal and in the assay with SF-295 CNS was above 100 µM each time. For the same molecule, the TGI in the assay on SF-268 CNS, in the assay on NCI-H23 lung and in the assay on NCI-H522 lung was above 100 µM each time.

In the case of `Nc1c(C(=O)Nc2cccc([N+](=O)[O-])c2)sc2nc3c(cc12)C(O)CCC3` (stereo not drawn), the GI50 in the assay on UACC-257 melanoma is above 29.8 µM; with HS 578T breast it was 11 µM; in the assay with MALME-3M melanoma, 26.9 µM; with RXF 393 renal, 6.76 µM; in the assay with UO-31 renal, above 100 µM; in the assay on SF-295 CNS, 4.35 µM. In addition, the GI50 in the assay on SF-268 CNS was 9.62 µM; in the assay with SK-MEL-2 melanoma, 5.4 µM; in the assay with NCI-H23 lung it was above 100 µM; in the assay with NCI-H522 lung, 6.11 µM. Besides, the TGI in the assay with UACC-257 melanoma was above 100 µM; in the assay on HS 578T breast, above 100 µM; in the assay on MALME-3M melanoma it was above 100 µM; in the assay on RXF 393 renal, above 65.8 µM; in the assay on UO-31 renal, above 100 µM; with SF-295 CNS, above 54 µM. Besides, the TGI is above 89.8 µM in the assay on SF-268 CNS, above 92.2 µM in the assay with SK-MEL-2 melanoma, above 100 µM in the assay with NCI-H23 lung and above 100 µM in the assay on NCI-H522 lung.

For `CC1SC(c2c(Cl)cccc2Cl)N(NC(=O)c2[nH]c3ccc(F)cc3c2-c2ccccc2)C1=O` (stereo not drawn), the GI50 in the assay on UACC-257 melanoma was 4.69 µM; in the assay on HS 578T breast, 1.93 µM; in the assay on MALME-3M melanoma, 1.43 µM; in the assay with RXF 393 renal it was 1.73 µM; with UO-31 renal, 2.13 µM; with SF-295 CNS, 1.9 µM. The GI50 is 1.97 µM in the assay on SF-268 CNS, 3.29 µM in the assay with SK-MEL-2 melanoma, 2.73 µM in the assay with NCI-H23 lung and 1.87 µM with NCI-H522 lung. Also, the TGI in the assay on UACC-257 melanoma was determined as 44 µM; in the assay with HS 578T breast it was 4.38 µM; with MALME-3M melanoma, 4.35 µM; in the assay on RXF 393 renal it was 4.12 µM; in the assay with UO-31 renal it was 8.61 µM; in the assay on SF-295 CNS it was 3.71 µM. Besides, the TGI amounted to 4.89 µM in the assay on SF-268 CNS, 15.6 µM in the assay on SK-MEL-2 melanoma, 10.1 µM in the assay on NCI-H23 lung and 5.83 µM in the assay on NCI-H522 lung.

Consider `OC[C@@H](O)[C@H]1NC[C@@H](O)[C@H]1O`, for which the TGI in the assay with UACC-257 melanoma, in the assay on HS 578T breast, in the assay on MALME-3M melanoma, in the assay with RXF 393 renal, with UO-31 renal and in the assay with SF-295 CNS was above 100 µM throughout. The TGI in the assay on SF-268 CNS, with NCI-H23 lung and with NCI-H522 lung was above 100 µM in each case.

For `COc1ccc2nc3cc([N+](=O)[O-])ccc3c(NCCCCCN(C)C)c2c1`, the GI50 was 1.03 µM with UACC-257 melanoma; 0.376 µM in the assay with HS 578T breast; 0.233 µM in the assay on MALME-3M melanoma; 0.819 µM with UO-31 renal; 0.353 µM in the assay on SF-295 CNS; 0.285 µM in the assay on SF-268 CNS. Besides, the values for the GI50 with SK-MEL-2 melanoma, with NCI-H23 lung and in the assay with NCI-H522 lung were 0.0208 µM, 0.25 µM and 0.03 µM, respectively. Further, the TGI with UACC-257 melanoma was found to be 2.66 µM; in the assay with HS 578T breast, 4.66 µM; in the assay with MALME-3M melanoma, 1.03 µM; in the assay on UO-31 renal, 3.63 µM; in the assay on SF-295 CNS it was 2.52 µM; with SF-268 CNS, 2.26 µM. Also, the TGI in the assay on SK-MEL-2 melanoma was 0.214 µM; in the assay with NCI-H23 lung, 1.54 µM; in the assay with NCI-H522 lung it was 0.0907 µM.
